Test results as given in PubChem BioAssay AID248 (DTP/NCI, 2004).
Values joined by “and” are separate entries in the source; they are usually repeats but may differ in a detail not shown here. Identical values can stand only once. Inconclusive results and toxic doses are left out. Rule as the data show it: active = T/C of 150% or more; inactive = T/C below 125%.

Test system: L1210 leukemia ip in BDF1 mice, survival T/C
Test: NCI In Vivo Anticancer Drug Screen. Data for tumor model L1210 Leukemia (intraperitoneal) in B6D2F1 (BDF1) mice
Details: endpoint: mean survival time, higher = longer survival
Procedure, shortened: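 Value reflects the ratio of survival in compound-treated mice to survival in vehicle-treated controls, with both groups carrying the same transplanted tumor.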

[1] = dose: 100.0 mg/kg/injection, schedule: Q01DX009 (ip), vehicle: saline with Tween-80
[2] = dose: 100.0 mg/kg/injection, schedule: Q04DX003 (ip), vehicle: saline with Tween-80
[3] = dose: 200.0 mg/kg/injection, schedule: Q01DX009 (ip), vehicle: saline with Tween-80
[4] = dose: 200.0 mg/kg/injection, schedule: Q04DX003 (ip), vehicle: saline with Tween-80
[5] = dose: 400.0 mg/kg/injection, schedule: Q04DX003 (ip), vehicle: saline with Tween-80
[6] = dose: 100.0 mg/kg/injection, schedule: Q01DX009 (ip), vehicle: Klucel (hydroxypropylcellulose) (HPC)
[7] = dose: 200.0 mg/kg/injection, schedule: Q01DX009 (ip), vehicle: Klucel (hydroxypropylcellulose) (HPC)
[8] = dose: 400.0 mg/kg/injection, schedule: Q01DX009 (ip), vehicle: saline with Tween-80
[9] = dose: 100.0 mg/kg/injection, schedule: Q04DX003 (ip), vehicle: Klucel (hydroxypropylcellulose) (HPC)
[10] = dose: 200.0 mg/kg/injection, schedule: Q04DX003 (ip), vehicle: Klucel (hydroxypropylcellulose) (HPC)
[11] = dose: 400.0 mg/kg/injection, schedule: Q04DX003 (ip), vehicle: Klucel (hydroxypropylcellulose) (HPC)
[12] = dose: 50.0 mg/kg/injection, schedule: Q01DX009 (ip), vehicle: Klucel (hydroxypropylcellulose) (HPC)
[13] = dose: 100.0 mg/kg/injection, schedule: Q01DX009 (ip), vehicle: saline
[14] = dose: 200.0 mg/kg/injection, schedule: Q01DX009 (ip), vehicle: saline
[15] = dose: 100.0 mg/kg/injection, schedule: Q04DX002 (ip), vehicle: Klucel (hydroxypropylcellulose) (HPC)
[16] = dose: 200.0 mg/kg/injection, schedule: Q04DX002 (ip), vehicle: Klucel (hydroxypropylcellulose) (HPC)
[17] = dose: 400.0 mg/kg/injection, schedule: Q01DX009 (ip), vehicle: Klucel (hydroxypropylcellulose) (HPC)
[18] = dose: 400.0 mg/kg/injection, schedule: Q04DX002 (ip), vehicle: Klucel (hydroxypropylcellulose) (HPC)
[19] = dose: 25.0 mg/kg/injection, schedule: Q01DX009 (ip), vehicle: Klucel (hydroxypropylcellulose) (HPC)
[20] = dose: 50.0 mg/kg/injection, schedule: Q01DX009 (ip), vehicle: saline

Measured: T/C

CCCC#CCOCC(O)CCl (stereo not drawn)
inactive: dose: 100.0 mg/kg/injection, schedule: Q01DX009 (ip), vehicle: saline sonified 105 % of control | dose: 100.0 mg/kg/injection, schedule: Q04DX003 (ip), vehicle: saline sonified 91 % of control | dose: 200.0 mg/kg/injection, schedule: Q01DX009 (ip), vehicle: saline sonified 101 % of control | dose: 200.0 mg/kg/injection, schedule: Q04DX003 (ip), vehicle: saline sonified 94 % of control | dose: 400.0 mg/kg/injection, schedule: Q01DX009 (ip), vehicle: saline sonified 105 % of control | dose: 400.0 mg/kg/injection, schedule: Q04DX003 (ip), vehicle: saline sonified 94 % of control

C#CC[P+](c1ccccc1)(c1ccccc1)c1ccccc1
inactive: dose: 6.25 mg/kg/injection, schedule: Q01DX001 (ip), vehicle: saline 106 % of control | dose: 12.5 mg/kg/injection, schedule: Q01DX001 (ip), vehicle: saline 109 % of control | dose: 25.0 mg/kg/injection, schedule: Q01DX001 (ip), vehicle: saline 116 % of control and 118 % of control

Cc1nc2c(o1)CCCC2
inactive: dose: 25.0 mg/kg/injection, schedule: Q01DX009 (ip), vehicle: carboxymethylcellulose (CMC) 94 % of control and 107 % of control | dose: 50.0 mg/kg/injection, schedule: Q01DX009 (ip), vehicle: carboxymethylcellulose (CMC) 97 % of control and 103 % of control | dose: 100.0 mg/kg/injection, schedule: Q01DX009 (ip), vehicle: carboxymethylcellulose (CMC) 94 % of control and 105 % of control | dose: 100.0 mg/kg/injection, schedule: Q04DX002 (ip), vehicle: carboxymethylcellulose (CMC) 103 % of control and 113 % of control | dose: 200.0 mg/kg/injection, schedule: Q04DX002 (ip), vehicle: carboxymethylcellulose (CMC) 98 % of control and 100 % of control | dose: 400.0 mg/kg/injection, schedule: Q04DX002 (ip), vehicle: carboxymethylcellulose (CMC) 88 % of control

CC1CCCCC12OCCO2 (stereo not drawn)
inactive: [1] 97 % of control | [2] 101 % of control | [3] 91 % of control | [4] 93 % of control | [5] 97 % of control

CCCSCCCC(=O)O
inactive: [6] 88 % of control | [7] 97 % of control

Cc1ccc(S(=O)(=O)OC2C(O)OCC3OC(C)(C)OC32)cc1 (stereo not drawn)
inactive: [1] 95 % of control | [3] 88 % of control | [8] 88 % of control

CCS(=O)(=O)C(S(C)(=O)=O)S(=O)(=O)C(C)C (stereo not drawn)
inactive: [9] 92 % of control | [10] 96 % of control | [11] 89 % of control

O=C(C(Cl)Cl)N(O)c1ccccc1OCc1ccccc1
inactive: dose: 100.0 mg/kg/injection, schedule: Q01DX001 (ip), vehicle: saline with Tween-80 98 % of control | dose: 200.0 mg/kg/injection, schedule: Q01DX001 (ip), vehicle: saline with Tween-80 112 % of control | dose: 400.0 mg/kg/injection, schedule: Q01DX001 (ip), vehicle: saline with Tween-80 98 % of control

O=C(O)CC(NC(=O)OCc1ccccc1)C(=O)O (stereo not drawn)
inactive: [12] 95 % of control | [6] 92 % of control | [13] 114 % of control | [7] 98 % of control | [14] 113 % of control | dose: 400.0 mg/kg/injection, schedule: Q01DX009 (ip), vehicle: saline 107 % of control

CC1(C)C(=NNc2ccc([N+](=O)[O-])cc2[N+](=O)[O-])C(C)(C)C1(Cl)Cl
inactive: dose: 50.0 mg/kg/injection, schedule: Q04DX002 (ip), vehicle: Klucel (hydroxypropylcellulose) (HPC) 97 % of control | [15] 118 % of control | [16] 105 % of control

O=C1C2ON=C(c3ccccc3)C2C(=O)N1OS(=O)(=O)c1ccccc1 (stereo not drawn)
inactive: [1] 98 % of control | [2] 103 % of control | [3] 92 % of control | [4] 102 % of control | [8] 88 % of control | [5] 90 % of control

c1cc[c]([Sn]([S]c2ncnc3c2nc[n]3[Sn]([c]2ccccc2)([c]2ccccc2)[c]2ccccc2)([c]2ccccc2)[c]2ccccc2)cc1.c1cc[c]([Sn]([S]c2ncnc3nc[nH]c23)([c]2ccccc2)[c]2ccccc2)cc1
inactive: dose: 5.0 mg/kg/injection, schedule: Q01DX001 (ip), vehicle: other 122 % of control | dose: 10.0 mg/kg/injection, schedule: Q01DX001 (ip), vehicle: other 100 % of control | dose: 20.0 mg/kg/injection, schedule: Q01DX001 (ip), vehicle: other 100 % of control

Nc1nc(N)c(CCCCc2ccccc2)c(/C=C/c2ccc([N+](=O)[O-])cc2)n1
inactive: dose: 100.0 mg/kg/injection, schedule: Q01DX001 (ip), vehicle: gum acacia 92 % of control | dose: 200.0 mg/kg/injection, schedule: Q01DX001 (ip), vehicle: gum acacia 94 % of control | dose: 400.0 mg/kg/injection, schedule: Q01DX001 (ip), vehicle: gum acacia 95 % of control

C(=Nc1cnc2sccc2c1)c1ccccc1
inactive: [9] 100 % of control | [10] 100 % of control | [11] 94 % of control

COc1cc2c(cc1OC)C(=O)Cc1ccc3c(c1CN(C)CC2)OCO3
inactive: [6] 95 % of control | [7] 95 % of control

CCOC(=O)C1OC12CCCCC2 (stereo not drawn)
inactive: [6] 100 % of control | dose: 100.0 mg/kg/injection, schedule: Q04DX003 (ip), vehicle: saline 92 % of control | [7] 92 % of control | dose: 200.0 mg/kg/injection, schedule: Q04DX003 (ip), vehicle: saline 96 % of control | [17] 100 % of control | dose: 400.0 mg/kg/injection, schedule: Q04DX003 (ip), vehicle: saline 89 % of control

N#CC1(c2ccccc2)CCCC1(C#N)c1ccccc1 (stereo not drawn)
inactive: dose: 75.0 mg/kg/injection, schedule: Q01DX001 (ip), vehicle: carboxymethylcellulose (CMC) 86 % of control | dose: 150.0 mg/kg/injection, schedule: Q01DX001 (ip), vehicle: carboxymethylcellulose (CMC) 88 % of control | dose: 300.0 mg/kg/injection, schedule: Q01DX001 (ip), vehicle: carboxymethylcellulose (CMC) 86 % of control

O=C(O)Cc1ccc([N+](=O)[O-])cc1
inactive: [1] 90 % of control | [3] 93 % of control | [8] 94 % of control

O=C(/C=N/O)Nc1cc(Cl)ccc1Cl
inactive: [1] 91 % of control | [2] 97 % of control | [3] 87 % of control | [4] 93 % of control | [8] 88 % of control | [5] 108 % of control

CCc1nc(NS(=O)(=O)c2ccc(N)cc2)nc(-c2ccccc2)c1-c1ccccc1O
inactive: [15] 87 % of control | [16] 91 % of control | [18] 95 % of control

CN(C)C(=S)SCc1c(O)c(C(C)(C)C)cc2cc(C(C)(C)C)ccc12
inactive: [15] 105 % of control | [16] 110 % of control | [18] 102 % of control

CCCCC(CC)C(O)C(C)C(C)O (stereo not drawn)
inactive: [6] 97 % of control | [9] 101 % of control | [7] 102 % of control | [10] 98 % of control | [17] 100 % of control | [11] 95 % of control

COc1ccccc1OC(=O)Nc1ccccc1F
inactive: [1] 97 % of control | [3] 96 % of control | [8] 118 % of control

Cc1cc(N(CCOS(C)(=O)=O)CCOS(C)(=O)=O)ccc1C=Nc1ccc(-c2csc(Cc3ccccc3)n2)cc1
inactive: dose: 6.25 mg/kg/injection, schedule: Q01DX009 (ip), vehicle: Klucel (hydroxypropylcellulose) (HPC) 105 % of control | dose: 12.5 mg/kg/injection, schedule: Q01DX009 (ip), vehicle: Klucel (hydroxypropylcellulose) (HPC) 110 % of control | [19] 122 % of control

C=C1C(=O)OC2C1CCC(C)C1C=CC(=O)C12C (stereo not drawn)
inactive: [20] 98 % of control | [13] 96 % of control | [14] 98 % of control

CCOC(=O)C1=C(C)NC(=O)NC1c1ccc(N(CCCl)CCCl)cc1Cl (stereo not drawn)
inactive: [19] 102 % of control | [12] 98 % of control | [6] 111 % of control

C=C1C(=O)OC2/C=C(\C)CC(O)/C=C(/C)CCC12 (stereo not drawn)
inactive: dose: 12.5 mg/kg/injection, schedule: Q04DX003 (ip), vehicle: Klucel (hydroxypropylcellulose) (HPC) 96 % of control | dose: 25.0 mg/kg/injection, schedule: Q04DX003 (ip), vehicle: Klucel (hydroxypropylcellulose) (HPC) 105 % of control | dose: 50.0 mg/kg/injection, schedule: Q04DX003 (ip), vehicle: Klucel (hydroxypropylcellulose) (HPC) 100 % of control

O=C1NNC(=O)C2C3CCC(C3)C12 (stereo not drawn)
inactive: [20] 98 % of control
